Three molecules from article PMC7608467 (Acta Pharmacologica Sinica, 2020) can be followed below.

One assay concerns the target T1, mouse RXFP4 (mRXFP4) (Mus musculus, UniProt Q7TQP4).
T1 sequence (Q7TQP4 1-414): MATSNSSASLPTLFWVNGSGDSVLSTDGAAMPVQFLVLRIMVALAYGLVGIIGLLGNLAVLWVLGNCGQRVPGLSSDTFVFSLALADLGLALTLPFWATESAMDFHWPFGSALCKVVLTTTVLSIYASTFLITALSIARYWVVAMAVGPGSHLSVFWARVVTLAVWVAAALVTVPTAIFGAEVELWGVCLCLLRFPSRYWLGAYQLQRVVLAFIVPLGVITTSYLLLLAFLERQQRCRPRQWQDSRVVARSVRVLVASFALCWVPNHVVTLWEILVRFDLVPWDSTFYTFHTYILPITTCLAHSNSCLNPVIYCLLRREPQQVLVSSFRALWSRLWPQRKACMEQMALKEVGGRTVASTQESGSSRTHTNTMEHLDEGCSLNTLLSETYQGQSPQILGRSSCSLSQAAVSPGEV
Description: inhibition of forskolin-stimulated cAMP accumulation, TR-FRET. It counts as cell-based. Conditions: agonist; 500 nM forskolin, 500 uM IBMX, 40 min, RT. (Changes in cAMP serve as a functional read-out for many G protein-coupled receptors.)

In assay [1] the target is T2, human RXFP4 (hRXFP4) (Homo sapiens, UniProt Q8TDU9). The assay is described as above. It counts as cell-based. To be noted: agonist; 500 nM forskolin, 500 uM IBMX, 40 min, RT.
T2 sequence (Q8TDU9 whole entry): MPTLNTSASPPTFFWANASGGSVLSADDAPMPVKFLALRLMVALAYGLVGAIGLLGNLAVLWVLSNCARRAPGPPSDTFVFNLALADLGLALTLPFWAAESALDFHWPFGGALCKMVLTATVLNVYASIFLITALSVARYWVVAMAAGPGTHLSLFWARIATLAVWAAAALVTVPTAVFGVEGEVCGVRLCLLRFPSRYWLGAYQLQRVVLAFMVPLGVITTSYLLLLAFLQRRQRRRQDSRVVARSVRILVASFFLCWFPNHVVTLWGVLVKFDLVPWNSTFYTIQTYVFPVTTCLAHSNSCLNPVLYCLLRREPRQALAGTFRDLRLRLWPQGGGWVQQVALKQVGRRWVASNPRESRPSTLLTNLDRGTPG
Assay [2] concerns the target T2, human RXFP4 (hRXFP4). Description: Eu-mINSL5 competition binding, time-resolved fluorescence, CHO-RXFP4 cells. It counts as cell-based. To be noted: n = 3; one-site fit; competitive with Eu-labelled INSL5.
In assay [3] the target is human relaxin/insulin-like family peptide receptor 4 (RXFP4) on CHO-K1 cells (human) (UniProt Q8TDU9).
human relaxin/insulin-like family peptide receptor 4 (RXFP4) on CHO-K1 cells (human), sequence (Q8TDU9 whole entry): as above

Human INSL5 (insulin-like peptide 5) (ligand), sequence (Q9Y5Q6 23-135): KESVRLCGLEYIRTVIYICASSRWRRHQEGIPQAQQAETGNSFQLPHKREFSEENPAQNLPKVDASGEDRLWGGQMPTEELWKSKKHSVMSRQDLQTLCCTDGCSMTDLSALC

As to `O=C1CCCC2=C1[C@H](c1ccc(O)cc1)n1nc(-c3ccccc3Cl)nc1N2` [JK1], the pEC50 at mouse RXFP4 (mRXFP4) is given as 4.60 ± 0.07 -log M; on human RXFP4 (hRXFP4) [1], 4.76 ± 0.04 -log M. On human RXFP4 (hRXFP4) [2], the pKi is recorded as 4.48 ± 0.09 -log M.

Molecule “Human INSL5 (insulin-like peptide 5) (ligand)” yielded a pEC50, inhibition of forskolin-stimulated cAMP production in hRXFP4-CHO cells in assay [3] of 8.12.

As to R3/I5 (ligand), the pEC50, inhibition of forskolin-stimulated cAMP production in hRXFP4-CHO cells in assay [3] is 7.52.
